In patent US11597737B2, “Small molecule inhibitors selective for polo-like kinase proteins” (UNIVERSITY OF SOUTH CAROLINA, priority 2016, dated 2023):
Where two headings read alike, the source gives them in different places. Each block holds one molecule with its values, some of them ahead of it.

What was measured:
[1] = test system: PC3 cells; test: Cell cycle analysis and BrdU pulse labeling in PC3 cells, FIG. 9-11; format: cell-based
Procedure: Analysis of Cell Cycle Progression by FACS
Serum-Starved Synchronization
Cells were synchronized in G1 by serum starvation. Briefly, exponentially growing cells were plated overnight. Media (DMEM, 10% FBS, 1% Pen. Strep.) was then removed and replaced with media containing no FBS. Cells were starved for 72 hours then treated for 24 hours with inhibitor. Following treatment, cells were harvested and processed for endpoint experimental analysis.
Ethanol fixative was removed by centrifugation and the cells were washed with 1 mL ice-cold PBS/1% BSA. Cells were denatured by resuspending in 0.2 mg/mL pepsin in 2N HCl and incubated in 37° C. water bath for 15 minutes. Hydrolysis was then terminated by adding 1 M Invitrogen™ Novex® Tris-Glycine. Cells were then washed with PBS/1% BSA then the primary anti-BrdU antibody (1:100 dilution in TBFP; 0.5% Tween-20, 1% BSA, 1% FBS, PBS) was added and cells were incubated for 25 minutes in the dark, at room temperature. […] Cells were washed once more with PBS/1% BSA and re-suspended in DAPI for 30 minutes before being analyzed by flow cytometry.
The PLK1 PBD-inhibitors were analyzed further by cell cycle analysis in PC3 cells (FIG. 9). […] To quantify the percentage of cells actively proliferating (synthesizing their DNA) or arrested Bromodeoxyuridine (BrdU) pulse labeling was carried out and analyzed by flow cytometry.

[2] = test system: mutant (C67V) PLK1 RPE cells; test: Cell viability assay, PLK1 C67V mutant RPE cells; format: cell-based; details: FIG. 6-8
Procedure: (§1) Retinal Pigment Epithelial (RPE) cells were maintained in 1:1 DMEM/Hams F-12 (Invitrogen™, Carlsebad, Calif.; Corning® Cellgro, Manassas, Va.), and supplemented with 10% FBS or Corning® Nu-Serum™ (BD™ Biosciences, Franklin Lakes, N.J.) and 1% penicillin/streptomycin (Invitrogen™) in a humidified incubator and 5% C02 at 37° C.
(§2) Exponentially growing cells were plated in 96-well dishes. Dose response curves were used to treat cells for 72 hours with inhibitors. Following the three-day treatment, cell viability was measured using the MTT (3-(4,5-dimethylthiazol-2-yl)-2,5-diphenyltetrazolium bromide) colorimetric assay. Cells were incubated for 3 hours with MTT allowing viable cells to metabolize the tetrazolium dye to a purple colored solution.

[3] = target: T1, PLK1 PBD (367-603) (Homo sapiens, UniProt P53350); test: Fluorescence polarization assay, PLK1 PBD; format: binding
T1 construct: PLK1 PBD (367-603); purchased BPS Biosciences Inc. (San Diego, Calif.)
Procedure: (§3) Fluorescence Polarization Assay
(§4) Materials were dissolved in DMSO (10 mM) and diluted from 10 nM to 600 μM (maximum of 6% DMSO tolerance in the assay). […] Incubation was carried out at room temperature for 45 minutes. Fluorescence was measured using a DTX 880 plate reader and Multimode Analysis software (Beckman Coulter, Brea, Calif.). […] Each data point was performed in triplicate for every experiment, and experiments were performed at least three times. An IC50 value for each compound was calculated from linear regression analysis of the plots.

[4] = target: T2, PLK3 PBD (335-646) (Homo sapiens, UniProt Q9H4B4); test: Fluorescence polarization assay, PLK3 PBD; details: PLK3 PBD binding
T2 construct: PLK3 PBD (335-646); purchased BPS Biosciences Inc. (San Diego, Calif.)
T2 sequence (Q9H4B4 335-646): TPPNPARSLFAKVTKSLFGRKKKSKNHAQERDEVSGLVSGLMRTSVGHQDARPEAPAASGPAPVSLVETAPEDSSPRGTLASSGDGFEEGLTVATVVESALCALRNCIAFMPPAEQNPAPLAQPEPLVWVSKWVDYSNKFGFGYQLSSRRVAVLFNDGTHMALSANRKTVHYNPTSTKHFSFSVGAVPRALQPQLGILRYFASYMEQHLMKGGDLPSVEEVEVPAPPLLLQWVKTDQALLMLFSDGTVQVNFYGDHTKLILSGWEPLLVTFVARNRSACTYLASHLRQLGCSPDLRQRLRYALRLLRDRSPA
Procedure: as §3, §4

[5] = test system: WT Retinal Pigment Epithelial (RPE) cells; test: Cell viability assay, WT RPE cells; format: cell-based; details: FIG. 7, FIG. 8
Procedure: as §1, §2

[6] = test system: KRAS mutant lung cancer (A-549) cells; test: Cell viability assay (MTT), A-549; format: cell-based
Procedure: A-549 lung cancer cells were maintained in Hams F-12 1× with glutamine (Corning® Cellgro, Manassas, Va.), and supplemented with 10% FBS or Corning® Nu-Serum™ (BD™ Biosciences, Franklin Lakes, N.J.) and 1% penicillin/streptomycin (Invitrogen™) in a humidified incubator and 5% C02 at 37° C.
as §2, with “solution. Absorbance measurements (595 nm) were quantified using a DTX 880 plate reader and IC50 values were generated for FLIPs.” for “solution.”

[7] = test system: HCT-116 (p53−/−) colon cancer cells; test: Cell viability assay (MTT), HCT116 p53-/-; format: cell-based
Procedure: HCT-116 (p53+/+ and −/−) colon cancer cells were maintained DMEM (Invitrogen™, Carlsebad, Calif.) supplemented with 10% FBS or Nu-serum (BD™ Biosciences, Franklin Lakes, N.J.) and 1% penicillin/streptomycin (Invitrogen™) in a humidified incubator and 5% C02 at 37° C.
as §2, with “solution. Absorbance measurements (595 nm) were quantified using a DTX 880 plate reader and IC50 values were generated for FLIPs.” for “solution.”

[8] = test system: HeLa cervical cancer cells; test: Cell viability assay (MTT), HeLa; format: cell-based; details: Homo sapiens, HeLa, 72 h, read-out: HeLa
Procedure: HeLa cervical cancer cells were obtained from ATCC (Manassas, Va.). […] Cells were maintained in DMEM (Invitrogen™, Carlsebad, Calif.) supplemented with 10% FBS or Corning© Nu-Serum™ (BD™ Biosciences, Franklin Lakes, N.J.) and 1% penicillin/streptomycin (Invitrogen™) in a humidified incubator and 5% CO2 at 37° C.
as §2

[9] = Cell cycle analysis and caspase apoptosis assay; format: cell-based
Excerpt: Disclosed small molecule inhibitors can also encourage apoptosis.

[10] = test system: PTEN deficient prostate cancer (PC3) cells; test: Cell viability assay (MTT), PC3; format: cell-based; details: read-out: PCC-3
Procedure: PC3 prostate cancer cells were maintained in DMEM (Invitrogen™, Carlsebad, Calif.) supplemented with 10% FBS or Corning® Nu-Serum™ (BD™ Biosciences, Franklin Lakes, N.J.) and 1% penicillin/streptomycin (Invitrogen™) in a humidified incubator and 5% C02 at 37° C.
as §2

[11] = target: T3, full length PLK1 (Homo sapiens, UniProt P53350); test: PLK1 kinase inhibition assay (CycLex ELISA); format: biochemical; details: 7.5 μM ATP, read-out: PLK1 Kinase Inhibitory Act. IC50
T3 construct: This ELISA assay measures the catalytic activity of full length PLK1 for a defined substrate
Excerpt: PLK1 Kinase Inhibition Assay
The CycLex® Polo-like Kinase 1 Assay/Inhibitor Screening Kit was used to measure catalytic inhibition (MBL Life Science, Nagano, Japan). This ELISA assay measures the catalytic activity of full length PLK1 for a defined substrate, which is detected by an anti-phospho-threonine antibody (PPT-07) and peroxidase coupled secondary antibody. […] Peroxidase catalyzes the conversion of the colorless solution to yellow, which was quantified using a DTX 880 plate reader. Absorbance measurements (450 nm) were plotted to calculate activity in each sample, and % inhibition was calculated in the wells relative to activity in the absence of inhibitor.

[12] = PLK1 PBD binding, fluorescence polarization, read-out: PLK1 IC50
[13] = Table 1, fluorescence polarization, read-out: PLK1 PBD IC50

T1 sequence (P53350 367-603): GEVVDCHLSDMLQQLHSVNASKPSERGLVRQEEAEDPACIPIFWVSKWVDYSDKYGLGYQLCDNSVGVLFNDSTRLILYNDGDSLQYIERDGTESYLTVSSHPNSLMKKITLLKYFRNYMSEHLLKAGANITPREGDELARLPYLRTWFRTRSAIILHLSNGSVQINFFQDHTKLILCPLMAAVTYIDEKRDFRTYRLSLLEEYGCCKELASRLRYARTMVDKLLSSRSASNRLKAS
T3 sequence (P53350 whole entry): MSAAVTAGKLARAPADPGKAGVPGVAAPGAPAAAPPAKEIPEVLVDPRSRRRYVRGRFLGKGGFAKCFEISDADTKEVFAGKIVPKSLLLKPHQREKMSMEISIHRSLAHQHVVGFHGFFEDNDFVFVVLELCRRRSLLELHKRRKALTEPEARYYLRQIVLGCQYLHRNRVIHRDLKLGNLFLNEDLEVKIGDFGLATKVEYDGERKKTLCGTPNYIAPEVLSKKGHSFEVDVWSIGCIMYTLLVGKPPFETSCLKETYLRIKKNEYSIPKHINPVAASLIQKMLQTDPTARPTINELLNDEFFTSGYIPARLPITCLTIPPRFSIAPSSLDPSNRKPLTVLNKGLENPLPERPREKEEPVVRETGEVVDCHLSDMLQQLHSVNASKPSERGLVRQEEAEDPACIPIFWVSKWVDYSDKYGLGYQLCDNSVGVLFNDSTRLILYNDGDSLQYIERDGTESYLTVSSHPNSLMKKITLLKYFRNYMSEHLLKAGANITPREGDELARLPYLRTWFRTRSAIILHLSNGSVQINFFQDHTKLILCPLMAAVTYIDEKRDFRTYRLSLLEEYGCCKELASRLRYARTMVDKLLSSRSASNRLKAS

Structure (SMILES): CC[C@@H]1C(=O)N(C)c2cnc(Nc3ccc(C(=O)NC4CCN(C)CC4)cc3OC)nc2N1C1CCCC1 [BI-2536, reference compound]
cells accumulate in G2/M ([1]; concentration not given): ~80% | sensitivity of cells containing mutant (C67V) PLK1 (in words) [2]: resistant

Structure (SMILES): CCCCc1ccc(C(=O)Nc2ccc(C(=O)O)cc2)cc1 [SCCP ID No. 5880]
IC50 [3, 12]: > 600 µM | binding to the PLK1 PBD (in words) ([3]; fluorescence polarization): did not bind

Structure (SMILES): CCCCCCc1ccc(C(=O)Nc2ccccc2C(=O)O)cc1 [SCCP ID No. 5881]
binding to the PLK1 PBD (in words) ([3]; fluorescence polarization): low micromolar activity

Structure (SMILES): CCCCCc1ccc(C(=O)Nc2ccccc2C(=O)O)cc1 [SCCP ID No. 5905]
IC50 [3, 12]: 224 ± 4.88 µM

Structure (SMILES): CCCCCCc1ccc(C(=O)Nc2cccc(S(N)(=O)=O)c2)cc1 [SCCP ID No. 5908]
IC50 [3, 12]: > 600 µM | binding to the PLK1 PBD (in words) ([3]; fluorescence polarization): No binding was observed

Structure (SMILES): CCCCCCCCc1ccc(C(=O)Nc2ccccc2C(=O)O)cc1 [SCCP ID No. 5912]
sensitivity of cells containing wild type PLK1 (in words) [5]: sensitive | cell cycle phenotype (in words) ([1]; 15 μM): S phase delay | IC50 ([6]; Homo sapiens, A549, 72 hours): 2.8 ± 0.1 µM | PLK1 versus PLK3 specificity (in words) ([3]; PBD binding): relatively equipotent for PLK1 and PLK3 PBD binding | sensitivity of cells containing mutant (C67V) PLK1 (in words) [2]: sensitive | IC50 ([7]; Homo sapiens, HCT-116, 72 hours): 8 ± 1.7 µM

Structure (SMILES): CCCCCCCCc1ccc(C(=O)Nc2ccccc2C(=O)OCC)cc1 [SCCP ID No. 5914]
IC50 [3, 12]: > 600 µM | IC50 [8]: > 100 µM | levels of apoptosis (in words) [9]: virtually none | IC50 ([10]; Homo sapiens, PC-3, 72 h): > 100 µM

Further lines, with some results ahead:

IC50 [4]: 43.6 ± 1.69 µM | IC50 [3, 12]: 130 ± 3.6 µM | Selectivity Fold Index ([3]; fold selectivity for PLK1 versus PLK3 PBD): 1.6
Structure (SMILES): CCCCCCc1ccc(C(=O)Nc2cccc(C(=O)O)c2)cc1 [SCCP ID No. 5903]

IC50 [3, 13]: > 600 µM
Structure (SMILES): CCCCCCc1ccc(C(=O)Nc2ncccc2C(=O)O)cc1 [SCCP ID No. 5904]

IC50 [3, 13]: 105 µM
Structure (SMILES): CCCCCCCCc1ccc(C(=O)NCc2ccccc2C(=O)O)cc1 [SCCP ID No. 5913]

IC50 [4]: 24.5 µM | IC50 [3, 12]: > 600 µM | binding to the PLK1 PBD (in words) ([3]; fluorescence polarization): no binding to PLK1
Structure (SMILES): CCCCCCc1ccc(C(=O)Nc2ccc(C)cc2C(=O)O)cc1 [SCCP ID No. 5924]

IC50 ([6]; 72 hours): 2.9 ± 0.5 µM | IC50 [3, 12]: 11.1 ± 1.1 µM | IC50 [11]: 48.9 µM | IC50 ([7]; 72 hours): 10 ± 2.4 µM | IC50 ([10]; MTT, 72 hours): 11.6 ± 1.2 µM
Structure (SMILES): CCCCCCCCc1ccc(C(=O)Nc2cccc(F)c2C(=O)O)cc1 [SCCP ID No. 5932]
sensitivity of cells containing wild type PLK1 (in words) [5]: sensitive | sensitivity of cells containing mutant (C67V) PLK1 (in words) [2]: sensitive
